{
  "source": "patent US20250205373A1",
  "about": "“ENRICHED AND STABLE RADIOLIGAND THERAPY FORMULATIONS AND PHARMACEUTICAL COMPOSITIONS COMPRISING SAME” (Mariana Oncology Inc., priority 2023, published 2025)",
  "target": "T1, B7-H3 (41 g) (Homo sapiens, UniProt Q5ZPR3)",
  "T1 sequence (Q5ZPR3 29-534)": "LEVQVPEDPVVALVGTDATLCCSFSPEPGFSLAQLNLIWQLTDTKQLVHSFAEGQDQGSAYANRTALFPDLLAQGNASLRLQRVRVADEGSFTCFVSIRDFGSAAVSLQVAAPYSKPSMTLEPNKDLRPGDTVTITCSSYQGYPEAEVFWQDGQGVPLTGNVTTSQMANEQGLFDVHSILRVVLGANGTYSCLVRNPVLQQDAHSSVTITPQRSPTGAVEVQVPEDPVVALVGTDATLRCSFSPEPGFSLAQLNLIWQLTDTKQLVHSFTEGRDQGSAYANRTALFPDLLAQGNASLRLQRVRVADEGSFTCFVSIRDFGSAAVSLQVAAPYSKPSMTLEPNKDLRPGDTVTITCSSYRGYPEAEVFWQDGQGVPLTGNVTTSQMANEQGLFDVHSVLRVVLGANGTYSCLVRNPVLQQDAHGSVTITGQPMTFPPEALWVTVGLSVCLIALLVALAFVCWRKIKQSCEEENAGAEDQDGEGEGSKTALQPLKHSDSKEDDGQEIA",
  "assay": "Binding of Compound 496 to B7-H3",
  "note": "Numbered stars: 1 amine (or outer) side, 2 acyl side, 3 side chain; on linkers, the order of the positions; unused ones are H or OH. Bridge positions count the residues as written; N and C are the ends. Square brackets hold non-standard residues; d marks the D form. Side chains are listed from the residue outwards. Peptide text beside a SMILES is read from it. * marks the point of attachment. Ala(1-CH2CO2H-4-piperidyl) = N[C@@H](CC1CCN(CC(=O)O)CC1)C(=O)O; Ala(piperidin-4-yl) = O=C([C@H](CC1CCN([*:3])CC1)N[*:1])[*:2]; X1 = CC(C)[C@H](N[*:1])C(=O)C[C@@H](Cc1ccc(O)cc1)C(=O)[*:2]; DOTA = O=C(O)CN1CCN(CC(=O)O)CCN(CC(=O)*)CCN(CC(=O)O)CC1; Trp(5-F) = N[C@@H](Cc1c[nH]c2ccc(F)cc12)C(=O)O; X2 = C[C@@H](c1ccccc1)[C@H](N[*:1])C(=O)[*:2]; Val(3-OH) = CC(C)(O)[C@H](N)C(=O)O; PEG4 = NCCOCCOCCOCCOCCC(=O)O; Tle = CC(C)(C)[C@H](N)C(=O)O; hLeu = CC(C)CC[C@H](N)C(=O)O",
  "data": [
    {"molecule": "CC(=O)N[C@@H](CCC(C)C)C(=O)N[C@@H](Cc1ccc(O)cc1)C(=O)N[C@H]1CSSC[C@@H](C(=O)N[C@@H](Cc2c[nH]c3ccc(F)cc23)C(=O)N[C@H](C(=O)N[C@H](C(=O)N[C@H](CCC(=O)O)C(N)=O)C(C)(C)O)[C@@H](C)c2ccccc2)NC(=O)[C@H](Cc2ccc(O)cc2)CC(=O)[C@H](C(C)C)NC(=O)[C@H](CC(=O)O)NC(=O)[C@H](CC2CCN(C(=O)CCOCCOCCOCCOCCNC(=O)CN3CCN(CC(=O)O)CCN(CC(=O)O)CCN(CC(=O)O)CC3)CC2)NC(=O)[C@H](CC2CCN(CC(=O)O)CC2)NC(=O)CNC(=O)[C@H](C(C)(C)C)NC1=O", "note": "[Compound 496] (Ac-[hLeu]YC[Tle]G[Ala(1-CH2CO2H-4-piperidyl)][Ala(piperidin-4-yl)]([PEG4-DOTA])D[X1]C[Trp(5-F)][X2][Val(3-OH)][dE]-NH2; disulfide 3-10)", "values": [
      {"measurement": "selectivity over the 21 g isoform", "setting": "B7-H3 (41 g) vs 21 g isoform", "result": "selectivity over the 21 g isoform"},
      {"measurement": "binding affinity", "setting": "B7-H3 (41 g), the predominant form expressed by tumor cells", "result": "high affinity"}
    ]}
  ]
}
